Assay results: ChEMBL document CHEMBL5236600, “Identification of a Novel Potent CYP4Z1 Inhibitor Attenuating the Stemness of Breast Cancer Cells through Lead Optimization” (J Med Chem, 2022)

What was measured:
Assay type in all cases: ADME, cell-based
Cytochrome P450 4Z1 [1] = molecular target: T1, Cytochrome P450 4Z1 (Homo sapiens, UniProt Q86W10); assay: Inhibition of CYP4Z1 in human HEK293T cells using Luciferin-BE as substrate incubated for 30 mins in presence of NADPH by luminescence based assay
T1 sequence (Q86W10 whole entry): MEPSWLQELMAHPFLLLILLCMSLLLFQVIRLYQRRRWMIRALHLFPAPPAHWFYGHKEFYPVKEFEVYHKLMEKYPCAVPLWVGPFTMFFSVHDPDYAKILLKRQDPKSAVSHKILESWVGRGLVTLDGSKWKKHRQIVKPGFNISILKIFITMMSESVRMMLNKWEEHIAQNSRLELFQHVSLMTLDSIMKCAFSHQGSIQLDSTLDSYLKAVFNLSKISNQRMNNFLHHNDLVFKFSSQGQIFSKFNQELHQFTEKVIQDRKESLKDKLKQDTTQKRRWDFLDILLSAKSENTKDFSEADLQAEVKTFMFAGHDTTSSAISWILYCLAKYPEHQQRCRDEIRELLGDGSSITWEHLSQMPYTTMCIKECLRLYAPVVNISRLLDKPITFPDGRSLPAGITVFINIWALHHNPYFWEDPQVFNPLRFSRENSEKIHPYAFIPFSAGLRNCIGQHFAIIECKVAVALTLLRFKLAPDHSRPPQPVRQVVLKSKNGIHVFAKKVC

Cytochrome P450 4Z1 [2] = molecular target: T1, Cytochrome P450 4Z1; assay: Inhibition of CYP4Z1 in human HEK293T cells using Luciferin-BE as substrate at 1 uM incubated for 30 mins in presence of NADPH by luminescence based assay relative to control; conditions: HEK-293T, 0.5 h
Cytochrome P450 4Z1 [3] = molecular target: T1, Cytochrome P450 4Z1; assay: Inhibition of CYP4Z1 in human HEK293T cells using Luciferin-BE as substrate at 10 uM incubated for 30 mins in presence of NADPH by luminescence based assay relative to control; conditions: HEK-293T, 0.5 h

- IC50 (Cytochrome P450 4Z1 [1]): 89.7 nM
- inhibition at 1 µM (Cytochrome P450 4Z1 [2]): 80.4%
- inhibition at 10 µM (Cytochrome P450 4Z1 [3]): 89.1%
Structure (SMILES): CCOC(=O)Cc1ccc(N/C=N/O)cc1
